Experimental data taken from patent US10183950B2, “Thienopyrimidine inhibitors of atypical protein kinase C” (Cancer Research Technology Limited, priority 2011, dated 2019).

The compounds below were run against T1, full-length human PKCι (Homo sapiens, UniProt P41743) (assay: PKCι IC50 IMAP fluorescence polarisation assay, full-length enzyme). Conditions: full length PKCi at 15 μM ATP; read-out: IC50 in IMAP assay against full length PKCi.
T1 construct: Recombinant, full-length human PKCι expressed in Sf21 insect cells is also commercially available; purchased; host or cells: Sf21 insect cells
T1 sequence (P41743 1-596): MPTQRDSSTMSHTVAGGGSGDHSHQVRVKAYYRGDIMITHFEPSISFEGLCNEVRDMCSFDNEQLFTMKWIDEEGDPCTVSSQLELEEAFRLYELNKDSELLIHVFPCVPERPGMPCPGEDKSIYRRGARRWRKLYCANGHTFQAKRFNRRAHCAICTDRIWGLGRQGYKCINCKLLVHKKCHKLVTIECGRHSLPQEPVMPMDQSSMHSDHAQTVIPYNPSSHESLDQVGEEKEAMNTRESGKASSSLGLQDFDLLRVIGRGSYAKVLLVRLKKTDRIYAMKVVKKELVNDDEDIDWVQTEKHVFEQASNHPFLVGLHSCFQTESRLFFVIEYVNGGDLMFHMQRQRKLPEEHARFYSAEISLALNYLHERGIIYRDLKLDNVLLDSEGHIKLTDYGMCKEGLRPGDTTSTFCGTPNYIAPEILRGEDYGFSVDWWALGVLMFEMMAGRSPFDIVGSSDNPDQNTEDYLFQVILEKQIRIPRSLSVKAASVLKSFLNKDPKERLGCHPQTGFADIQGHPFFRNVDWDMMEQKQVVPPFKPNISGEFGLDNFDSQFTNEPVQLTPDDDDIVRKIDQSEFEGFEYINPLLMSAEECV
Assay type: biochemical
For CC(C)(C)C#Cc1csc2c(NC[C@@H](N)Cc3ccccc3)nc(-c3ccncc3)nc12 [compound 511, (S)-N*1*-[7-(3,3-Dimethyl-but-1-ynyl)-2-pyridin-4-yl-thieno[3,2-d]pyrimidin-4-yl]-3-phenyl-propane-1,2-diamine], the IC50 was 1000 to 10000 nM. For c1ccc(-c2ccc(Nc3cc(-c4nc(N[C@@H]5CCNC5)c5sccc5n4)ccn3)nc2)cc1 [compound 601, {2-[2-(5-Phenyl-pyridin-2-ylamino)-pyridin-4-yl]-thieno[3,2-d]pyrimidin-4-yl}-(R)-pyrrolidin-3-yl-amine], the IC50 was 100 to 1000 nM. c1ccc(Nc2cc(-c3nc(N[C@@H]4CCNC4)c4sccc4n3)ccn2)cc1 [compound 573, [2-(2-Phenylamino-pyridin-4-yl)-thieno[3,2-d]pyrimidin-4-yl]-(R)-pyrrolidin-3-yl-amine] showed an IC50 of 1000 to 10000 nM. CC(C)(C)NC(=O)Nc1cc(-c2nc(N[C@@H]3CCNC3)c3sccc3n2)ccn1 [compound 582, 1-tert-Butyl-3-{4-[4-((R)-pyrrolidin-3-ylamino)-thieno[3,2-d]pyrimidin-2-yl]-pyridin-2-yl}-urea] showed an IC50 of 1000 to 10000 nM. CNC(=O)Nc1cc(-c2nc(N[C@@H]3CCNC3)c3sccc3n2)ccn1 [compound 583, 1-Methyl-3-{4-[4-((R)-pyrrolidin-3-ylamino)-thieno[3,2-d]pyrimidin-2-yl]-pyridin-2-yl}-urea] showed an IC50 of 1000 to 10000 nM. Compound CC(C)(C)c1sc2c(NC[C@@H](N)Cc3ccccc3)nc(-c3ccncc3)nc2c1Br [compound 334, (S)-N*1*-(7-Bromo-6-tert-butyl-2-pyridin-4-yl-thieno[3,2-d]pyrimidin-4-yl)-3-phenyl-propane-1,2-diamine] has an IC50 of 1000 to 10000 nM. O=C(Nc1cc(-c2nc(N[C@@H]3CCNC3)c3sccc3n2)ccn1)c1cccs1 [compound 595, Thiophene-2-carboxylic acid {4-[4-((R)-pyrrolidin-3-ylamino)-thieno[3,2-d]pyrimidin-2-yl]-pyridin-2-yl}-amide] gave an IC50 of 100 to 1000 nM. For F[C@@H]1CNC[C@@H]1Nc1nc(-c2ccncc2)nc2ccsc12 [compound 321, ((3S,4R)-4-Fluoro-pyrrolidin-3-yl)-(2-pyridin-4-yl-thieno[3,2-d]pyrimidin-4-yl)-amine], the IC50 was 10000 to 40000 nM. With Fc1ccccc1Nc1csc2c(N[C@@H]3CCNC3)nc(-c3ccncc3F)nc12 [compound 500, N*7*-(2-Fluoro-phenyl)-2-(3-fluoro-pyridin-4-yl)-N*4*-(R)-pyrrolidin-3-yl-thieno[3,2-d]pyrimidine-4,7-diamine] the IC50 was 100 to 1000 nM. For Cc1cccc(Nc2csc3c(N[C@@H]4CCNC4)nc(-c4ccncc4F)nc23)c1 [compound 492, 2-(3-Fluoro-pyridin-4-yl)-N*4*-(R)-pyrrolidin-3-yl-N*7*-m-tolyl-thieno[3,2-d]pyrimidine-4,7-diamine], the IC50 was 10000 to 40000 nM. With CN1CCN(C(=O)c2ccc(Nc3cc(-c4nc(N[C@@H]5CCNC5)c5sccc5n4)ccn3)cc2)CC1 [compound 613, (4-Methyl-piperazin-1-yl)-(4-{4-[4-((R)-pyrrolidin-3-ylamino)-thieno[3,2-d]pyrimidin-2-yl]-pyridin-2-ylamino}-phenyl)-methanone] the IC50 was 100 to 1000 nM. In the case of O=C(Nc1cc(-c2nc(N[C@@H]3CCNC3)c3sccc3n2)ccn1)[C@@H]1CCCO1 [compound 578, (S)-Tetrahydro-furan-2-carboxylic acid {4-[4-((R)-pyrrolidin-3-ylamino)-thieno[3,2-d]pyrimidin-2-yl]-pyridin-2-yl}-amide], the IC50 is reported as 100 to 1000 nM. With C#Cc1csc2c(NC[C@@H](N)Cc3ccccc3)nc(-c3ccncc3)nc12 [compound 541, (S)-N*1*-(7-Ethynyl-2-pyridin-4-yl-thieno[3,2-d]pyrimidin-4-yl)-3-phenyl-propane-1,2-diamine] the IC50 was less than 100 nM. Work on N[C@H](CNc1nc(-c2ccncc2)nc2c(C#Cc3ccccc3)csc12)Cc1ccccc1 [compound 402, (S)-3-Phenyl-N*1*-(7-phenylethynyl-2-pyridin-4-yl-thieno[3,2-d]pyrimidin-4-yl)-propane-1,2-diamine] yielded an IC50 of 100 to 1000 nM. With Fc1c(-c2nc(N[C@@H]3CCNC3)c3sccc3n2)ccnc1Nc1ccccc1 [compound 619, [2-(3-Fluoro-2-phenylamino-pyridin-4-yl)-thieno[3,2-d]pyrimidin-4-yl]-(R)-pyrrolidin-3-yl-amine] the IC50 was 10000 to 40000 nM. N[C@H](CNc1nc(-c2ccncc2)nc2c(C3CC3)csc12)Cc1ccccc1 [compound 413, (S)-N*1*-(7-Cyclopropyl-2-pyridin-4-yl-thieno[3,2-d]pyrimidin-4-yl)-3-phenyl-propane-1,2-diamine] was tested, and the IC50 was less than 100 nM. Work on N[C@H](CNc1nc(-c2ccncc2)nc2c(Br)csc12)CC1CCCCC1 [compound 348, (S)-N*1*-(7-Bromo-2-pyridin-4-yl-thieno[3,2-d]pyrimidin-4-yl)-3-cyclohexyl-propane-1,2-diamine] yielded an IC50 of 100 to 1000 nM. Cn1nccc1-c1csc2c(NC[C@@H](N)Cc3ccccc3)nc(-c3ccncc3)nc12 [compound 391, (S)-N*1*-[7-(2-Methyl-2H-pyrazol-3-yl)-2-pyridin-4-yl-thieno[3,2-d]pyrimidin-4-yl]-3-phenyl-propane-1,2-diamine] gave an IC50 of 1000 to 10000 nM. In the case of C#Cc1sc2c(N[C@@H]3CCNC3)nc(-c3ccncc3)nc2c1C [compound 543, (6-Ethynyl-7-methyl-2-pyridin-4-yl-thieno[3,2-d]pyrimidin-4-yl)-(R)-pyrrolidin-3-yl-amine], the IC50 is reported as 1000 to 10000 nM. In the case of N[C@H](CNc1nc(-c2ccncc2)nc2c(NC(=O)C3CCCCC3)csc12)Cc1ccccc1 [compound 474, Cyclohexanecarboxylic acid [4-((S)-2-amino-3-phenyl-propylamino)-2-pyridin-4-yl-thieno[3,2-d]pyrimidin-7-yl]-amide], the IC50 is reported as 10000 to 40000 nM. For N[C@H](CNc1nc(-c2ccncc2)nc2c(Nc3ccncn3)csc12)Cc1ccccc1 [compound 489, N*4*-((S)-2-Amino-3-phenyl-propyl)-2-pyridin-4-yl-N*7*-pyrimidin-4-yl-thieno[3,2-d]pyrimidine-4,7-diamine], the IC50 was 1000 to 10000 nM. Work on CC(C)(C)c1sc2c(NC[C@@H](N)Cc3ccccc3)nc(-c3ccncc3)nc2c1-c1cccc(N)c1 [compound 444, (S)-N*1*-[7-(3-Amino-phenyl)-6-tert-butyl-2-pyridin-4-yl-thieno[3,2-d]pyrimidin-4-yl]-3-phenyl-propane-1,2-diamine] yielded an IC50 of 10000 to 40000 nM. O=C(Nc1ccccc1)Nc1cc(-c2nc(N[C@@H]3CCNC3)c3sccc3n2)ccn1 [compound 575, 1-Phenyl-3-{4-[4-((R)-pyrrolidin-3-ylamino)-thieno[3,2-d]pyrimidin-2-yl]-pyridin-2-yl}-urea] was tested, and the IC50 was 100 to 1000 nM. Compound CN(C)CCNc1nc(-c2ccncc2)nc2c(Br)csc12 [compound 339, N′-(7-Bromo-2-pyridin-4-yl-thieno[3,2-d]pyrimidin-4-yl)-N,N-dimethyl-ethane-1,2-diamine] has an IC50 of 10000 to 40000 nM. With CC(C)(C)c1sc2c(NC[C@@H](N)Cc3ccccc3)nc(-c3ccncc3)nc2c1-c1cccc(F)c1 [compound 436, (S)-N*1*-[6-tert-Butyl-7-(3-fluoro-phenyl)-2-pyridin-4-yl-thieno[3,2-d]pyrimidin-4-yl]-3-phenyl-propane-1,2-diamine] the IC50 was 10000 to 40000 nM.

Same assay, conditions: full length PKCi at 15 μM ATP; read-out: IC50 in IMAP assay against full length PKCi (Activity)
With N[C@H](CNc1nc(-c2ccncc2)nc2sc3c(c12)CCSC3)Cc1ccccc1 [compound 80, (S)-3-Phenyl-N*1*-(2-pyridin-4-yl-5,8-dihydro-6H-thiopyrano[4′,3′:4,5]thieno[2,3-d]pyrimidin-4-yl)-propane-1,2-diamine] the IC50 was 100 to 1000 nM. Compound N[C@H](CNc1nc(-c2ccncc2)nc2sc3c(c12)CCCC3)Cc1cscn1 [compound 59, (S)-N*1*-(2-Pyridin-4-yl-5,6,7,8-tetrahydro-benzo[4,5]thieno[2,3-d]pyrimidin-4-yl)-3-thiazol-4-yl-propane-1,2-diamine] has an IC50 of 100 to 1000 nM. For CN(C)CC(=O)N1CCc2c(sc3nc(-c4ccncc4)nc(NCCN)c23)C1 [compound 111, 1-[4-(2-Amino-ethylamino)-2-pyridin-4-yl-5,8-dihydro-6H-pyrido[4′,3′:4,5]thieno[2,3-d]pyrimidin-7-yl]-2-dimethylamino-ethanone], the IC50 was 10000 to 40000 nM. With Cc1cccc(C[C@H](N)CNc2nc(-c3ccncc3)nc3sc4c(c23)CCCC4)c1 [compound 48, (S)-N*1*-(2-Pyridin-4-yl-5,6,7,8-tetrahydro-benzo[4,5]thieno[2,3-d]pyrimidin-4-yl)-3-m-tolyl-propane-1,2-diamine] the IC50 was 100 to 1000 nM. In the case of N[C@H](CNc1nc(-c2ccncc2O)nc2sc3c(c12)CCCC3)Cc1ccccc1 [compound 103, 4-[4-((S)-2-Amino-3-phenyl-propylamino)-5,6,7,8-tetrahydro-benzo[4,5]thieno[2,3-d]pyrimidin-2-yl]-pyridin-3-ol], the IC50 is reported as 1000 to 10000 nM. NC(CNc1nc(-c2ccncc2)nc2sc3c(c12)CCCC3)Cc1c[nH]c2ccccc12 (stereo in doubt) [compound 63, (S)-3-(1H-Indol-3-yl)-N*1*- (2-pyridin-4-yl-5,6,7,8-tetrahydro-benzo[4,5]thieno[2,3-d]pyrimidin-4-yl)-propane-1,2-diamine] showed an IC50 of 1000 to 10000 nM.
